Measurements taken from patent publication US8575156B2, “Cyclic inhibitors of 11β-hydroxysteroid dehydrogenase 1” (Vitae Pharmaceuticals, Inc., priority 2007, dated 2013).
Like-named read-outs stand apart in the source and are kept apart here.

Molecular target: 11β-HSD1 (Homo sapiens, UniProt P28845)
Experiment: biochemical
Conditions: for IC50: IC50 Range, Biological Test Example 1, microsomes from CHO cells overexpressing human 11β-HSD1
[1] = read-out: Average % inhibition at 100 nM, Biological Test Example 1, 100 nM compound
[2] = read-out: Average % inhibition at 100 nM, Biological Test Example 1, 100 nM

Chain of 11β-HSD1 (P28845 whole entry): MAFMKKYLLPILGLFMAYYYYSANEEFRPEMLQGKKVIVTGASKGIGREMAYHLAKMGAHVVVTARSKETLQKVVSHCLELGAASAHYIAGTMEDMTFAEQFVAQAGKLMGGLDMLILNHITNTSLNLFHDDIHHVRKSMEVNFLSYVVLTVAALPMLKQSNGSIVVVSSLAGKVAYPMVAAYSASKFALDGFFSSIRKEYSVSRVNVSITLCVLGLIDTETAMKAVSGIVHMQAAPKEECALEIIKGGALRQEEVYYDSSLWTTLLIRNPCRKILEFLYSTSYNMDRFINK

| IC50 | inhibition at 0.1 µM [1] | inhibition at 0.1 µM [2] | inhibition at 0.1111 µM (read-out: Average % inhibition at 111.1 nM, Biological Test Example 1, 111.1 nM) | SMILES | inhibition at 0.1 µM (read-out: Average % inhibition at 100 nM) |
| --- | --- | --- | --- | --- | --- |
| < 100 nM | 97.3% | – | – | CC(O)C[C@]1(c2ccccc2)CCN([C@@H](C)c2ccc(-c3ccc(F)cc3)cc2)C(=O)O1 (stereo partly drawn) [EXAMPLE 224, (6S)-3-((1S)-1-(4′-fluorobiphenyl-4-yl)ethyl)-6-(2-hydroxypropyl)-6-phenyl-1,3-oxazinan-2-one] | – |
| < 100 nM | 90.7% | – | – | CCC[C@]1(c2ccccc2)CCN([C@@H](C)c2ccc(-c3ccc(F)cc3F)cc2)C(=O)O1 [EXAMPLE 226, (R)-3-((S)-1-(2′,4′-difluorobiphenyl-4-yl)ethyl)-6-phenyl-6-propyl-1,3-oxazinan-2-one] | – |
| < 100 nM | 57% | – | – | C=CC[C@]1(c2ccc(F)cc2)CCN([C@@H](C)c2ccc(N3CCN(C)CC3)cc2)C(=O)O1 [EXAMPLE 231, (R)-6-allyl-6-(4-fluorophenyl)-3-((S)-1-(4-(4-methylpiperazin-1-yl)phenyl)ethyl)-1,3-oxazinan-2-one] | – |
| < 100 nM | 96.9% | – | – | C[C@@H](c1ccc(-c2ccc(F)cc2)cc1)N1CC[C@](CCCO)(c2cccs2)OC1=O [EXAMPLE 232, (R)-3-((S)-1-(4′-fluorobiphenyl-4-yl)ethyl)-6-(3-hydroxypropyl)-6-(thiophen-2-yl)-1,3-oxazinan-2-one] | – |
| < 100 nM | 96.7% | – | – | CC[C@@H](c1ccc(Br)cc1)N1CC[C@](CCCO)(c2ccc(F)cc2)OC1=O [EXAMPLE 241, (R)-3-((S)-1-(4-bromophenyl)propyl)-6-(4-fluorophenyl)-6-(3-hydroxypropyl)-1,3-oxazinan-2-one] | – |
| < 100 nM | 38.9% | – | – | C=CC[C@]1(c2ccc(F)cc2)CCN([C@@H](C)c2ccc(C(=O)N3CCCCC3)cc2)C(=O)O1 [EXAMPLE 243, (R)-6-allyl-6-(4-fluorophenyl)-3-((S)-1-(4-(piperidine-1-carbonyl)phenyl)ethyl)-1,3-oxazinan-2-one] | – |
| < 100 nM | 96.7% | – | – | C[C@@H](c1ccc(-c2ccc(F)cc2)cc1)N1CC[C@](CCC(C)(C)O)(c2ccccc2)OC1=O [EXAMPLE 248, (R)-3-((S)-1-(4′-fluorobiphenyl-4-yl)ethyl)-6-(3-hydroxy-3-methylbutyl)-6-phenyl-1,3-oxazinan-2-one] | – |
| < 100 nM | 96.3% | – | – | CC(=O)c1ccc(-c2ccc([C@H](C)N3CC[C@](CCCO)(c4ccccc4)OC3=O)cc2)s1 [EXAMPLE 249, (R)-3-((S)-1-(4-(5-acetylthiophen-2-yl)phenyl)ethyl)-6-(3-hydroxypropyl)-6-phenyl-1,3-oxazinan-2-one] | – |
| < 100 nM | 97.1% | – | – | C[C@@H](c1ccc(-c2ccc(F)cc2F)cc1)N1CC[C@](CCC(N)=O)(c2ccccc2)OC1=O [EXAMPLE 250, 3-((R)-3-((S)-1-(2′,4′-difluorobiphenyl-4-yl)ethyl)-2-oxo-6-phenyl-1,3-oxazinan-6-yl)propanamide] | – |
| < 100 nM | 90.9% | – | – | CC(N)c1ccc(-c2ccc([C@H](C)N3CC[C@](CCCO)(c4ccccc4)OC3=O)cc2)s1 (stereo partly drawn) [EXAMPLE 251, (6R)-3-((1S)-1-(4-(5-(1-aminoethyl)thiophen-2-yl)phenyl)ethyl)-6-(3-hydroxypropyl)-6-phenyl-1,3-oxazinan-2-one] | – |
| < 100 nM | 99% | – | – | CC[C@@H](c1ccc(-c2ccc(F)cc2)cc1)N1CC[C@](CCCO)(c2ccc(F)cc2)OC1=O [EXAMPLE 252, (R)-3-((S)-1-(4′-fluorobiphenyl-4-yl)propyl)-6-(4-fluorophenyl)-6-(3-hydroxypropyl)-1,3-oxazinan-2-one] | – |
| < 100 nM | 93.3% | – | – | CC[C@@H](c1ccc(-c2ccc(F)cc2F)cc1)N1CC[C@](CCCO)(c2ccccc2)OC1=O [EXAMPLE 253, (R)-3-((S)-1-(2′,4′-difluorobiphenyl-4-yl)propyl)-6-(3-hydroxypropyl)-6-phenyl-1,3-oxazinan-2-one] | – |
| < 100 nM | 96% | – | – | CC(O)c1ccc(-c2ccc([C@H](C)N3CC[C@](CCCO)(c4ccccc4)OC3=O)cc2)s1 (stereo partly drawn) [EXAMPLE 254, (6R)-3-((1S)-1-(4-(5-(1-hydroxyethyl)thiophen-2-yl)phenyl)ethyl)-6-(3-hydroxypropyl)-6-phenyl-1,3-oxazinan-2-one] | – |
| < 100 nM | 43.1% | – | – | C[C@@H](c1ccc(N2CCCCS2(=O)=O)cc1)N1CC[C@](CCO)(c2ccc(F)cc2)OC1=O [EXAMPLE 259, (S)-6-(4-fluorophenyl)-6-(2-hydroxyethyl)-3-((S)-1-(4-(1,1-dioxo-hexahydro-1,2-thiazin-2-yl)phenyl)ethyl)-1,3-oxazinan-2-one] | – |
| < 100 nM | 94.1% | – | – | C[C@@H](c1ccc(-c2ccc(F)cc2F)cc1)N1CC[C@](CCC(C)(C)O)(c2ccccc2)OC1=O [EXAMPLE 260, (R)-3-((S)-1-(2′,4′-difluorobiphenyl-4-yl)ethyl)-6-(3-hydroxy-3-methylbutyl)-6-phenyl-1,3-oxazinan-2-one] | – |
| < 100 nM | 96.2% | – | – | CC[C@@H](c1ccc(-c2ccc(F)cc2F)cc1)N1CC[C@](CCCO)(c2ccc(F)cc2)OC1=O [EXAMPLE 261, (R)-3-((S)-1-(2′,4′-difluorobiphenyl-4-yl)propyl)-6-(4-fluorophenyl)-6-(3-hydroxypropyl)-1,3-oxazinan-2-one] | – |
| < 100 nM | 56.8% | – | – | CNCC(O)C[C@]1(c2ccc(F)cc2)CCN([C@@H](C)c2ccc(-c3ccc(F)cc3F)cc2)C(=O)O1 (stereo partly drawn) [EXAMPLE 265, (6S)-3-((S)-1-(2′,4′-difluorobiphenyl-4-yl)ethyl)-6-(4-fluorophenyl)-6-(2-hydroxy-3-(methylamino)propyl)-1,3-oxazinan-2-one] | – |
| < 100 nM | 96.1% | – | – | C[C@@H](c1ccc(-c2ccc(F)cc2)cc1)N1CC[C@](CCCNS(C)(=O)=O)(c2ccccc2)OC1=O [EXAMPLE 270, N-(3-((R)-3-((S)-1-(4′-fluorobiphenyl-4-yl)ethyl)-2-oxo-6-phenyl-1,3-oxazinan-6-yl)propyl)methanesulfonamide] | – |
| < 100 nM | 93.8% | – | – | C[C@@H](c1ccc(-c2ccc(F)cc2F)cc1)N1CC[C@](CCCOC(N)=O)(c2ccc(F)cc2)OC1=O [EXAMPLE 272, 3-((R)-3-((S)-1-(2′,4′-difluorobiphenyl-4-yl)ethyl)-6-(4-fluorophenyl)-2-oxo-1,3-oxazinan-6-yl)propyl carbamate] | – |
| < 100 nM | 97.7% | – | – | C[C@@H](c1ccccc1F)N1CC[C@](CCCO)(c2ccc(F)cc2)OC1=O [EXAMPLE 284, (R)-6-(4-fluorophenyl)-3-((S)-1-(2-fluorophenyl)ethyl)-6-(3-hydroxypropyl)-1,3-oxazinan-2-one] | – |
| < 100 nM | 96.2% | – | – | C[C@@H](c1ccc(F)cc1)N1CC[C@](CCCO)(c2ccc(F)cc2)OC1=O [EXAMPLE 285, (R)-6-(4-fluorophenyl)-3-((S)-1-(4-fluorophenyl)ethyl)-6-(3-hydroxypropyl)-1,3-oxazinan-2-one] | – |
| < 100 nM | 89.8% | – | – | C[C@@H](c1ccc(Cl)cc1)N1CC[C@](CCC(N)=O)(c2ccccc2)OC1=O [EXAMPLE 287, 3-((R)-3-((S)-1-(4-chlorophenyl)ethyl)-2-oxo-6-phenyl-1,3-oxazinan-6-yl)propanamide] | – |
| < 100 nM | 72.4% | – | – | C[C@@H](c1cccc(F)c1)N1CC[C@](CCC(N)=O)(c2ccc(F)cc2)OC1=O [EXAMPLE 288, 3-((R)-6-(4-fluorophenyl)-3-((S)-1-(3-fluorophenyl)ethyl)-2-oxo-1,3-oxazinan-6-yl)propanamide] | – |
| < 100 nM | 94% | – | – | C[C@@H](c1cccc(C(F)(F)F)c1)N1CC[C@](CCCO)(c2ccc(F)cc2)OC1=O [EXAMPLE 293, (R)-6-(4-fluorophenyl)-6-(3-hydroxypropyl)-3-((S)-1-(3-(trifluoromethyl)phenyl)ethyl)-1,3-oxazinan-2-one] | – |
| < 100 nM | 97.2% | – | – | C[C@@H](c1ccc(C(F)(F)F)cc1)N1CC[C@](CCCO)(c2ccc(F)cc2)OC1=O [EXAMPLE 294, (R)-6-(4-fluorophenyl)-6-(3-hydroxypropyl)-3-((S)-1-(4-(trifluoromethyl)phenyl)ethyl)-1,3-oxazinan-2-one] | – |
| < 100 nM | 71.7% | – | – | C[C@@H](c1cccc(C(F)(F)F)c1)N1CC[C@](CCC(N)=O)(c2ccc(F)cc2)OC1=O [EXAMPLE 299, 3-((R)-6-(4-fluorophenyl)-2-oxo-3-((S)-1-(3-(trifluoromethyl)phenyl)ethyl)-1,3-oxazinan-6-yl)propanamide] | – |
| < 100 nM | 86.7% | – | – | COc1ccc([C@H](C)N2CC[C@](CCNS(C)(=O)=O)(c3ccc(F)cc3)OC2=O)cc1 [EXAMPLE 301, N-(2-((S)-6-(4-fluorophenyl)-3-((S)-1-(4-methoxyphenyl)ethyl)-2-oxo-1,3-oxazinan-6-yl)ethyl)methanesulfonamide] | – |
| > 1000 nM | – | 25% | 8.6% | C[C@@H](c1ccc(S(C)(=O)=O)cc1)N1CC[C@](CCO)(c2ccc(F)cc2)OC1=O [EXAMPLE 308, (S)-6-(4-fluorophenyl)-6-(2-hydroxyethyl)-3-((S)-1-(4-(methylsulfonyl)phenyl)ethyl)-1,3-oxazinan-2-one] | – |
| < 100 nM | – | 77.5% | – | C[C@@H](c1ccc(-c2ccc(F)cc2)cc1)N1CC[C@](CCCOP(=O)(O)O)(c2ccccc2)OC1=O [EXAMPLE 310, 3-((R)-3-((S)-1-(4′-fluorobiphenyl-4-yl)ethyl)-2-oxo-6-phenyl-1,3-oxazinan-6-yl)propyl dihydrogen phosphate] | – |

| SMILES | IC50 | inhibition at 0.1 µM [1] | inhibition at 0.1 µM [2] | inhibition at 0.1111 µM (read-out: Average % inhibition at 111.1 nM, Biological Test Example 1, 111.1 nM) | inhibition at 0.1 µM (read-out: Average % inhibition at 100 nM) |
| --- | --- | --- | --- | --- | --- |
| C[C@@H](c1ccc(-c2ccc(F)cc2F)cc1)N1CC[C@](CCS(C)(=O)=O)(c2ccc(F)cc2)OC1=O [EXAMPLE 229, (S)-3-((S)-1-(2′,4′-difluorobiphenyl-4-yl)ethyl)-6-(4-fluorophenyl)-6-(2-(methylsulfonyl)ethyl)-1,3-oxazinan-2-one] | < 100 nM | – | – | – | 81.6% |
